Consider 24 compounds from patent US8609669B2, “Potassium channel modulators” (AbbVie Inc., priority 2010, dated 2013).

This assay concerns the target T1, KCNQ 2/3 channels (HEK293 cells stably expressing human KCNQ2 and KCNQ3 subunits) (Homo sapiens, UniProt O43525+O43526).
T1 construct: expressed in transfected cells; host or cells: HEK293
Briefly: KCNQ2/3 channel activation, thallium flux FLIPR assay (BTC-AM dye). It counts as cell-based. As to conditions: for Emax: HEK293, maximum response relative to response of retigabine at 10 μM (set at 100%), read-out: Max. %; for EC50: HEK293 cells expressing human KCNQ2 and KCNQ3, FLIPR thallium flux. The procedure:
The following example describes the assay that can be used to identify compounds that activate KCNQ 2/3 channels.
HEK293 cells stably expressing human KCNQ2 and KCNQ3 subunits were seeded in 96-well, black-walled, clear-bottomed, poly-D-lysine coated plates (BD Biosciences, Bedford, Mass.) at a density of 1×10^5 cells per well 24 hours before the assay. On the assay day, BTC-AM dye (Invitrogen, Carlsbad, Calif.) was loaded into the cells by replacing the cell culture medium with 100 μL/well of 4 μM dye in DPBS. Dye loading was allowed to proceed for 2 hours at room temperature and then cells were washed twice in 100 μL/well of assay buffer (in mM: 10 HEPES pH 7.3, 5 glucose, 140 Na-gluconate, 2.5 K-gluconate, 3.6 Ca-gluconate, 2 MgSO4, 0.1 Ouabain) to remove unloaded dye. Cells were incubated in 50 μL of assay buffer before loading onto a FLIPR system (Molecular Devices, Sunnyvale, Calif.). Various concentrations of compounds to be assayed were added to the cells in 50 μL of assay buffer and incubated for 4 minutes. The fluorescence signal was initiated by adding 100 μL of assay buffer containing 6 mM TlNO3 and 10 mM K2SO4. Fluors were excited using the 488-nm line of an argon laser and emission was filtered using a 540±30 nm bandpass filter. Fluorescent signals were recorded for 3 minutes. Responses over baseline values were plotted versus concentrations of test compounds to obtain an EC50 value. The maximum response for each test compound was determined relative to the response produced at 10 μM by retigabine. The maximum response of retigabine at 10 μM was set at 100%.

Regarding `O=C(CCC1CCCC1)Nc1nn2cccnc2c1/C=C/c1ccc(C(F)(F)F)cc1` [Example 153, 3-cyclopentyl-N-(3-{(E)-2-[4-(trifluoromethyl)phenyl]vinyl}pyrazolo[1,5-a]pyrimidin-2-yl)propanamide], the Emax was determined as 50% and the 50% effective concentration (EC50) was more than 10000 nM.

`O=C(NCC1CCOCC1)Nc1nn2cccnc2c1-c1ccc(Cl)cc1` [Example 103, 1-[3-(4-chlorophenyl)pyrazolo[1,5-a]pyrimidin-2-yl]-3-(tetrahydro-2H-pyran-4-ylmethyl)urea]: the Emax came to 8% and the concentration for a half-maximal effect (EC50) is more than 10000 nM.

Turning to `O=C(CC1CC2CCC1C2)Nc1nn2cccnc2c1-c1ccc(Cl)cc1` (racemic) [Example 158, (±)-exo-2-bicyclo[2.2.1]hept-2-yl-N-[3-(4-chlorophenyl)pyrazolo[1,5-a]pyrimidin-2-yl]acetamide], the Emax was 143% and the half-maximal effective concentration (EC50) was in the range of 100 to 500 nM.

Regarding `Cc1cnc2c(-c3ccc(F)c(C)c3)c(NC(=O)CCC(C)(C)C)nn2c1` [Example 164, N-[3-(4-fluoro-3-methylphenyl)-6-methylpyrazolo[1,5-a]pyrimidin-2-yl]-4,4-dimethylpentanamide], the Emax is 126% and the EC50 was 500 to 1000 nM.

As for `COc1ncc(-c2c(NC(=O)Cc3ccc(F)cc3)nn3cccnc23)cn1` [Example 181, 2-(4-fluorophenyl)-N-[3-(2-methoxypyrimidin-5-yl)pyrazolo[1,5-a]pyrimidin-2-yl]acetamide], the Emax was determined as 7% and the EC50 was more than 10000 nM.

As to `Cc1cnc2c(-c3ccc(F)c(C)c3)c(NC(=O)CC(C)(C)c3ccccc3)nn2c1` [Example 149, N-[3-(4-fluoro-3-methylphenyl)-6-methylpyrazolo[1,5-a]pyrimidin-2-yl]-3-methyl-3-phenylbutanamide], the Emax came out at 127% and the 50% effective concentration (EC50) was in the range of 500 to 1000 nM.

As to `COc1cccc(CC(=O)Nc2nn3c(C)ccnc3c2CC(C)(C)C)c1` [Example 38, N-[3-(2,2-dimethylpropyl)-7-methylpyrazolo[1,5-a]pyrimidin-2-yl]-2-(3-methoxyphenyl)acetamide], the Emax stood at 163% and the EC50 is more than 10000 nM.

`Cc1cnc2c(-c3ccc(F)cc3)c(NC(=O)Cc3ccc(Cl)cc3)nn2c1` [Example 27, 2-(4-chlorophenyl)-N-[3-(4-fluorophenyl)-6-methylpyrazolo[1,5-a]pyrimidin-2-yl]acetamide]: the Emax is 125% and the EC50 was 100 to 500 nM.

For the compound `Cc1cnc2c(-c3ccc(F)c(C)c3)c(NC(=O)CC3CC4CCC3C4)nn2c1` (racemic) [Example 150, (±)-exo-2-bicyclo[2.2.1]hept-2-yl-N-[3-(4-fluoro-3-methylphenyl)-6-methylpyrazolo[1,5-a]pyrimidin-2-yl]acetamide], the Emax worked out at 198% and the concentration for a half-maximal effect (EC50) was less than 100 nM.

On to `Cc1cc(C)n2nc(NC(=O)CCc3ccccc3)c(-c3ccc(F)cc3)c2n1` [Example 29, N-[3-(4-fluorophenyl)-5,7-dimethylpyrazolo[1,5-a]pyrimidin-2-yl]-3-phenylpropanamide], for which the Emax worked out at 166% and the EC50 was in the range of 100 to 500 nM.

Turning to `Cc1cc(C)n2nc(NC(=O)CCC3CCCC3)c(-c3ccccc3)c2n1` [Example 95, 3-cyclopentyl-N-(5,7-dimethyl-3-phenylpyrazolo[1,5-a]pyrimidin-2-yl)propanamide], the Emax was found to be 167% and the EC50 is less than 100 nM.

For `CCC1(c2c(NC(=O)CC3CC4CCC3C4)nn3cccnc23)CCCCC1` (racemic) [Example 146, (±)-exo-2-bicyclo[2.2.1]hept-2-yl-N-[3-(1-ethylcyclohexyl)pyrazolo[1,5-a]pyrimidin-2-yl]acetamide], the Emax was 151% and the EC50 lay in the range of 500 to 1000 nM.

For the compound `COC(=O)c1c(NC(=O)CCC2CCCC2)nn2cccnc12` [Example 125, methyl 2-[(3-cyclopentylpropanoyl)amino]pyrazolo[1,5-a]pyrimidine-3-carboxylate], the Emax amounted to 8% and the EC50 was more than 10000 nM.

Turning to `Cc1cnc2c(-c3cccc(F)c3)c(NC(=O)Cc3ccc(F)cc3)nn2c1` [Example 84, 2-(4-fluorophenyl)-N-[3-(3-fluorophenyl)-6-methylpyrazolo[1,5-a]pyrimidin-2-yl]acetamide], the Emax came to 132% and the EC50 was 100 to 500 nM.

With `COc1ccc(CC(=O)Nc2nn3cc(C)cnc3c2CC(C)(C)C)cc1` [Example 18, N-[3-(2,2-dimethylpropyl)-6-methylpyrazolo[1,5-a]pyrimidin-2-yl]-2-(4-methoxyphenyl)acetamide], the Emax was determined as 156% and the 50% effective concentration (EC50) was in the range of 1000 to 10000 nM.

`Cc1cnc2c(-c3ccc(F)c(C)c3)c(NC(=O)C(C)c3ccccc3)nn2c1` (racemic) [Example 176, (±)-N-[3-(4-fluoro-3-methylphenyl)-6-methylpyrazolo[1,5-a]pyrimidin-2-yl]-2-phenylpropanamide]: the Emax came out at 83% and the concentration giving a half-maximal response (EC50) is 100 to 500 nM.

Take `O=C(Cc1ccc(F)cc1)Nc1nn2cccnc2c1-c1cccc(F)c1` [Example 82, 2-(4-fluorophenyl)-N-[3-(3-fluorophenyl)pyrazolo[1,5-a]pyrimidin-2-yl]acetamide]: the Emax turned out to be 112% and the EC50 fell in the range of 500 to 1000 nM.

Regarding `CC(C)(C)c1c(NC(=O)CC2CCC3CC23)nn2cccnc12` (stereo not drawn) [Example 175, 2-[(cis)-bicyclo[3.1.0]hex-2-yl]-N-(3-tert-butylpyrazolo[1,5-a]pyrimidin-2-yl)acetamide], the Emax was 177% and the EC50 lay in the range of 1000 to 10000 nM.

On to `CC(C)(C)CC(=O)Nc1nn2cccnc2c1/C=C/c1ccc(C(F)(F)F)cc1` [Example 147, 3,3-dimethyl-N-(3-{(E)-2-[4-(trifluoromethyl)phenyl]vinyl}pyrazolo[1,5-a]pyrimidin-2-yl)butanamide], for which the Emax was 65% and the 50% effective concentration (EC50) was 1000 to 10000 nM.

In the case of `Cc1ccnc2c(-c3ccc(Cl)cc3)c(NC(=O)CC(C)(C)C)nn12` [Example 40, N-[3-(4-chlorophenyl)-7-methylpyrazolo[1,5-a]pyrimidin-2-yl]-3,3-dimethylbutanamide], the Emax turned out to be 139% and the EC50 is 1000 to 10000 nM.

Take `O=C(Cc1ccccc1O)Nc1nn2cccnc2c1-c1ccc(Cl)cc1` [Example 104, N-[3-(4-chlorophenyl)pyrazolo[1,5-a]pyrimidin-2-yl]-2-(2-hydroxyphenyl)acetamide]: the Emax was found to be 10% and the EC50 is more than 10000 nM.

As for `Cc1cc(C)n2nc(NC(=O)CCC3CCCC3)c(-c3ccc(Cl)cc3)c2n1` [Example 43, N-[3-(4-chlorophenyl)-5,7-dimethylpyrazolo[1,5-a]pyrimidin-2-yl]-3-cyclopentylpropanamide], the Emax worked out at 157% and the concentration for a half-maximal effect (EC50) was less than 100 nM.

Consider `CC(C)(C)c1c(NC(=O)CC2CCCC2)nn2cccnc12` [Example 154, N-(3-tert-butylpyrazolo[1,5-a]pyrimidin-2-yl)-2-cyclopentylacetamide], for which the Emax came out at 188% and the EC50 was in the range of 1000 to 10000 nM.

Turning to `O=C(CC1CC2CCC1C2)Nc1nn2cccnc2c1-c1ccc(OC(F)(F)F)cc1` (racemic) [Example 124, (±)-exo-2-bicyclo[2.2.1]hept-2-yl-N-{3-[4-(trifluoromethoxy)phenyl]pyrazolo[1,5-a]pyrimidin-2-yl}acetamide], the Emax stood at 130% and the EC50 lay within 100 to 500 nM.

As usually defined, the EC50 is the concentration giving half of the maximal effect. Lower therefore signals greater potency.
